The values below come from patent publication US11613552B2, “Pharmaceutical agents, compositions, and methods relating thereto” (Alltech, Inc., priority 2017, dated 2023).

In data set [1] the test system is HepG2 cells. In words: Glucose production assay in HepG2 cells. Format: cell-based, human. How it is done: (§1) Equal numbers of Human HepG2 or rat H4IIE cells (1-1.5×10^5 cells/well) were seeded on 96 well plates in 10% FBS-containing media for 24 hr. Cells were then washed twice with PBS, and treated with various concentrations of compounds, metformin or insulin in 100 μl of glucose production media (glucose-free, phenol red-free DMEM media supplemented with 20 mM sodium lactate, 2 mM sodium pyruvate and 5 mM HEPES) at 37° C. for 24 hr (H4IIE cells only) or 48 hr (HepG2 cell only). Cells were also incubated with 0.24% DMSO (the maximal volume of DMSO solvent used in the experiments).
(§2) After the above treatments, 50 μl of culture media were collected, and subjected to glucose analysis using Molecular Probes Amplex Red glucose assay kit (Cat #A22189) according to the manufacturer's protocol. Cell numbers or viability in the culture plate after the above compound treatments were determined using Promega's CellTiter96® AQueous One Solution Cell Proliferation Assay kits, according to the manufacturer's protocol and instructions. In brief, after removing 50 μl of culture media for glucose assay, cells were incubated with AQueous One solution (25 μl stock solution and 50 μl prewarmed PBS/per well) at 37° C. for 1 hour, and the absorbance of OD490 nm in each sample was determined by the Bio-Tek microplate reader. Cell viability in culture wells were determined by the subtraction of OD490 nm in cultured cells with the OD490 nm in plain culture media (without seeding of cells). Glucose production in the culture cells were obtained by normalizing the glucose concentration in culture media by cell viability in each well. At least 3 samples per each treatment were examined for the above analysis. Data are presented as Mean±SEM of those samples. Experiments were repeated at least twice.
(§3) The half maximal inhibitory concentration (IC50 values) of Compound #43 or metformin for the inhibition of glucose production were determined using the ED50 Plus v1.0 online software.

Data set [2] relates to Lepr^db/db mice. The data set is described as follows: Chronic treatment: fasting blood glucose and HbA1c in Lepr^db/db mice. Particulars: for effect on HbA1c levels: 25 μg selenium/kg ip daily for 90 days from 41 days of age (FIG. 5). Type of data set: in vivo, mouse. As to the method: (§4) Male Lepr^db/db mice at 38 days of age were intraperitoneally (ip) injected daily with physiological saline ([…]) containing 0.2% DMSO, Compound #C, Compound #50, Compound #68, and/or Compound #43 (25 μg selenium or sulfur equivalents of each compound per kilogram body weight, diluted in sterile physiological saline) for periods ranging from 43-90 days. Body weights of the above treated mice were recorded daily using a balance and any visible abnormal animal gross morphology and walking behavior were monitored daily. After the treatments, animals were fasted overnight and then subjected to blood glucose or HbA1c assays, glucose tolerance tests or tissue collections.
(§5) For comparative studies of any potential anti-diabetic effects of Compounds #43, #69 and #70, male Lepr^db/db mice at 41 days of age were intraperitoneally (ip) injected daily with physiological saline ([…]) containing 0.2% DMSO, Compound #43, Compound #69, or Compound #70 (25 μg selenium of each compound per kilogram body weight, diluted in sterile physiological saline). After the treatments for 43 days, animals were fasted overnight and then subjected to blood glucose and glucose tolerance tests. After daily treatments of these compounds for 90 days, sera from these animals were collected and then subjected to blood HbA1c assays.
After treatment with physiological saline or compounds or after the injection of a bolus of glucose, a small drop of blood from each mouse was collected by snipping the mouse tail tip. Blood glucose levels were determined using a Glucometer with a maximum capability for glucose measurement of 600 mg/dL.
After saline or compound treatments, a small drop of blood from the mouse tail was collected in an EDTA-coated eppendorf tube (to prevent blood coagulation) (Fisher Scientific), and then subjected to a HbA1c assay using the Crystal Chem's or Kamiya's mouse glycated hemoglobin A1c ELISA kit, according to the manufacturer's protocol. Also after the final treatments, mouse serum was collected and subjected to HbA1c assay using the Kamiya Biomeidcal Company's mouse HbA1c kit, according to the manufacturer's protocol.

Data set [3] in a line: Body weight, gross morphology and walking behavior of treated Lepr^db/db mice. Format: in vivo. As to the method: Body weights of the above treated mice were recorded daily using a balance and any visible abnormal animal gross morphology and walking behavior were monitored daily. After the treatments, animals were fasted overnight and then subjected to blood glucose or HbA1c assays, glucose tolerance tests or tissue collections.
After the treatments for 43 days, animals were fasted overnight and then subjected to blood glucose and glucose tolerance tests. After daily treatments of these compounds for 90 days, sera from these animals were collected and then subjected to blood HbA1c assays.

Data set [4] deals with Lepr^db/db mice. The data set is described as follows: Glucose tolerance test in Lepr^db/db mice. Format: in vivo, mouse. How it is done:
as §4, §5
Glucose tolerance tests were performed as described previously (Li et al, Int J Biol Sci 2008; 4:29-36). Briefly, overnight-fasted Lepr^db/db mice after saline or compound treatments were injected intraperitoneally with 2 grams/kg body weight of 20% D-glucose. Blood glucose levels at time 0 (immediately before the injection of glucose), 0.25, 0.5, 1 and 2 hours after injection of glucose were determined using a glucometer with a maximum glucose measurement capacity of 600 mg/dL. Because of this, blood glucose levels over 600 mg/dL were counted as 600 mg/dL in the data analysis.

The target of data set [5] is T1, native insulin receptor (Insr) (Rattus norvegicus, UniProt P15127).
T1 construct: native insulin receptor proteins, containing both alpha and beta subunits; purchased Sigma I9266; host or cells: purified from rat liver tissue
In words: In vitro cell-free phosphorylation of native insulin receptor. Conditions: 3.8 μM, cell-free (FIG. 27). Type of data set: biochemical. As to the method: In vitro phosphorylation of Insr was performed according to Sigma's protocol with the following modifications. In brief, 10 μl of native insulin receptor solution containing 0.8 μl of original native INSR stock solution (Sigma, Catalog #I9266; diluted in enzyme dilution buffer containing 50 mM HEPES, pH 7.6, 150 mM NaCl and 0.1% Triton X-100) were incubated with equal volume of solutions containing insulin (Sigma), DMSO (Compound #43 solvent), Compound #43 or Compound #68 (diluted in 50 mM HEPES, pH 7.6 and 100 μg/ml bovine serum albumin) on ice for 30 min. Then 20 μl of 2× kinase buffer containing 0.2 mM ATP, 50 mM HEPES, pH 7.6, 50 mM MgCl2 and 4 mM MnCl2 were added to the above reactions, mixed and incubated on ice for 45 minutes.
Five microliters of the above reactions were immediately subjected to Western blot analysis using specific antibodies against phosphorylated tyrosine residues at 1146, 1150 and 1151 of Insrβ proteins (Cell Signaling Inc.). Protein band density was determined using the NIH Image J software.

For data set [6], the system named is H4IIE cells. The data set is described as follows: Glucose production assay in H4IIE cells. Format: cell-based, rat. How it is done: as §1, §2, §3
Data set [7] relates to HepG2 cells. The data set is described as follows: Cell viability (CellTiter96 AQueous One) in HepG2 cells. Type of data set: cell-based, human. Conditions: higher doses 0.5-4 mM. As to the method:
as §2

Data set [8] relates to H4IIE cells. The data set is described as follows: Cell viability (CellTiter96 AQueous One) in H4IIE cells. Type of data set: cell-based, rat. Particulars: tested doses. As to the method:
as §2

Where [9] appears, read: tested doses, serum-free glucose production media, 48 hr (FIG. 1).
Where [10] appears, read: 25 μg selenium/kg ip daily for 43 days from 41 days of age (FIG. 5).
The mark [11] stands for this setting: 25 μg selenium/kg ip daily, 90 days, from 41 days of age.

A word on the pIC50: it is the IC50 on a negative log10 scale, so that one unit is a factor of ten.

pIC50: −log10 of the molar value.

T1 sequence (P15127 764-1383 limits assumed): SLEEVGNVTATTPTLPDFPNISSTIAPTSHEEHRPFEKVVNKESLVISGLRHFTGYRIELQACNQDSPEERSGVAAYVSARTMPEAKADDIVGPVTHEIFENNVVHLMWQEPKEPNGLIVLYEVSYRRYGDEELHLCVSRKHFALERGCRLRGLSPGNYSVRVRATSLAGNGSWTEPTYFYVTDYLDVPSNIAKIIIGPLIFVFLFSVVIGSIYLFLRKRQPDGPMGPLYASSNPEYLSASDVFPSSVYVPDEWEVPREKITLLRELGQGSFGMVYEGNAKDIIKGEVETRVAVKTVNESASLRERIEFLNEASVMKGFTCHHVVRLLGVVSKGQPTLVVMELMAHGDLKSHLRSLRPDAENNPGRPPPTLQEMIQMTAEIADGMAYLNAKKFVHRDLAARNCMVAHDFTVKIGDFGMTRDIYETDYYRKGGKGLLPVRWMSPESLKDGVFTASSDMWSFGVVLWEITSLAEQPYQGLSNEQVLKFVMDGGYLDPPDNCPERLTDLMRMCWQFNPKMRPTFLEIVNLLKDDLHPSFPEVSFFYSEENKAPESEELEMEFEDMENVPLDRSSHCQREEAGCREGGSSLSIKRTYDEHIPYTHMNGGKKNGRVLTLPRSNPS
T1 sequence (P15127 27-759 partner limits assumed): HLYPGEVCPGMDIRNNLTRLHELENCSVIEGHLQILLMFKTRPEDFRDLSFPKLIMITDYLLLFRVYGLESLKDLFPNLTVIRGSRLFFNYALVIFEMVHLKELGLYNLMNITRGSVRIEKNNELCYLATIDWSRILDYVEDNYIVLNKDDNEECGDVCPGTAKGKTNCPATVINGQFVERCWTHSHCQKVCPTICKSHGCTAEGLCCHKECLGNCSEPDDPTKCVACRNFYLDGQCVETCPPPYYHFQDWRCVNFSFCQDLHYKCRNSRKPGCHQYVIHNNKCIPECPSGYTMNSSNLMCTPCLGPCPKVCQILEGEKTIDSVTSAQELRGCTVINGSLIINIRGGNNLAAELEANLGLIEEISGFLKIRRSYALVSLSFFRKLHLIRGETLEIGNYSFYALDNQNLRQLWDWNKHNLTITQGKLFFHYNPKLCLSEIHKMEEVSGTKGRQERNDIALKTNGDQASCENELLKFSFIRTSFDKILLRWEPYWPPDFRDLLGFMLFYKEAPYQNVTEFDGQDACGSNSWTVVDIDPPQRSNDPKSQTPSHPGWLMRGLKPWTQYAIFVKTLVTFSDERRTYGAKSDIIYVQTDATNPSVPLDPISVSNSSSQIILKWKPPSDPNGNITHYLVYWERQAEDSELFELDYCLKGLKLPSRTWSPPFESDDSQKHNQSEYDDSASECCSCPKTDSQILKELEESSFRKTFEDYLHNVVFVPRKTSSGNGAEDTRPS

For the molecule `CCCC(=O)OC1C(OC(=O)CCC)[C@@H](C[Se]C)O[C@H]1n1cnc2c(N)ncnc21` (stereo partly drawn) [Compound #70, Adenosine, 5′-Se-methyl-5′-selino-, 2′,3′-dibutanoate], the “effect on glucose production in HepG2 cells” value (from here on “effect … in HepG2 cells”) in the data set on HepG2 cells [1] (setting [9]) is reported as “inhibited glucose production”. For the same molecule, in the data set on Lepr^db/db mice [2] (setting [10]), the “effect on fasting blood glucose levels” value is “decrease of fasting blood glucose levels in Lepr^db/db mice but less significant than Compound #43”. For the same molecule, in the data set with Lepr^db/db mice [2] (25 μg selenium/kg ip daily for 90 days (FIG. 5), later revised), the “decrease of HbA1c levels (initial assessments)” value was “about 50%”. Also, in the data set with Lepr^db/db mice [2], the “effect on HbA1c levels” value was “neither Compound #69 nor Compound #70 had any significant effect”. In addition, the “overt toxic effects (morphology, walking behavior, body weight)” value in data set [3] (setting [11]) is reported as “no overt toxic effects”. The “blood glucose level at 2 hr after glucose injection” value (“blood glucose level at 2 hr” for short) in the data set with Lepr^db/db mice [4] (FIG. 8C, 43 days treatment) was “slight but non-significant decrease in blood glucose levels”.

On to “Adenosine, F—Se-methyl-F-seleno-, 2′-morpholinocarbamate and Adenosine, 5′-Se-methyl-F-seleno-, 3′-morpholinocarbamate [Compound #53]”, for which the “effect … in HepG2 cells” value in the data set with HepG2 cells [1] (setting [9]) was “inhibited glucose production”.

Consider `Nc1ncnc2c1ncn2C1CCCO1` (stereo not drawn) [Compound #61, 9-(tetrahydrofuran-2-yl)-9h-purin-6-amine (SQ 22,536), reference compound], for which, in the data set with HepG2 cells [1] (setting [9]), the “effect … in HepG2 cells” value is reported as “did not inhibit glucose production”.

For `Nc1ncnc2c1ncn2[C@@H]1O[C@H](CO)[C@@H](O)[C@H]1O` [Compound #57, Adenosine, reference compound], in the data set on HepG2 cells [1] (setting [9]), the “effect … in HepG2 cells” value is recorded as “did not inhibit glucose production”.

With `C[S+](CC[C@H](N)C(=O)O)C[C@H]1O[C@@H](n2cnc3c(N)ncnc32)C(O)C1O.[I-]` (stereo partly drawn) [Compound #64, S-(5′-Adenosyl)-L-methionine iodide (SAM), reference compound], the “effect … in HepG2 cells” value in the data set with HepG2 cells [1] (setting [9]) is listed as “minimal effects in lowering glucose production”.

Turning to `Nc1ncnc2[nH]cnc12` [Compound #62, Adenine, reference compound], the “effect … in HepG2 cells” value with HepG2 cells [1] (setting [9]) is recorded as “did not inhibit glucose production”.

As for “Adenosine, 5′-Se-methyl-5′-selino-, 2′,3′-dipropionate [Compound #69]”, the “effect … in HepG2 cells” value with HepG2 cells [1] (setting [9]) is reported as “inhibited glucose production”. For the same molecule, the “effect on fasting blood glucose levels” value in the data set with Lepr^db/db mice [2] (setting [10]) was “slight increase in fasting blood glucose levels”. Further, the “effect on HbA1c levels” value in the data set on Lepr^db/db mice [2] is “did not result in a significant decrease of HbA1c levels”. Also, the “overt toxic effects (morphology, walking behavior, body weight)” value in data set [3] (setting [11]) is “no overt toxic effects”. The “blood glucose level at 2 hr” value with Lepr^db/db mice [4] (FIG. 8C, 43 days treatment) is “slight but non-significant decrease in glucose levels”.

For the molecule `CSC[C@H]1O[C@@H](n2cnc3c(N)ncnc32)[C@H](OC(C)=O)[C@@H]1OC(C)=O` [Compound #68, Adenosine, 5′-S-methyl-5′-thio-, 2′,3′-diacetate], in the data set with HepG2 cells [1] (setting [9]), the “effect … in HepG2 cells” value is given as “minimal effects in lowering glucose production”. The “effect on fasting blood glucose levels” value in the data set on Lepr^db/db mice [2] (25 μg selenium or sulfur/kg ip daily, 3 months (FIG. 4)) is given as “did not significantly lower blood glucose levels”. In addition, the “effect on blood HbA1c levels” value with Lepr^db/db mice [2] (25 μg sulfur/kg ip daily, 3 months (FIG. 4)) is on record as “did not affect blood HbA1c levels”. In data set [3] (25 μg selenium or sulfur/kg ip daily, 3 months), the “overt toxic effects (morphology, walking behavior, body weight)” value is “no overt toxic effects”. Moreover, the “glucose tolerance (overall)” value in the data set with Lepr^db/db mice [4] (25 μg selenium or sulfur/kg ip daily 2 months (FIG. 8B)) is given as “little or no effects to improve glucose tolerance”. For the same molecule, in the data set with Lepr^db/db mice [4] (FIG. 8B, 2 months treatment), the “blood glucose level at 2 hr” value is on record as “no obvious decrease of blood glucose levels”. Besides, in data set [5], the “activation of Insr” value is given as “less effective at the tested dose than Compound #43”.

As to `C[C@H]1O[C@@H](n2cnc3c(N)ncnc32)C[C@@H]1O` [Compound #59, 2′,5′-Dideoxyadenosine, reference compound], in the data set with HepG2 cells [1] (setting [9]), the “effect … in HepG2 cells” value is on record as “did not inhibit glucose production”.

Consider `CN(C)C(=N)N=C(N)N` [metformin, reference compound], for which the “effect … in HepG2 cells” value in the data set with HepG2 cells [1] (500 μM) is recorded as “did not inhibit glucose production”. The “inhibitory activity on glucose production in H4IIE cells” value in the data set with H4IIE cells [6] (36.25 μM) is “little or no inhibitory activity”. Moreover, the pIC50 in the data set with H4IIE cells [6] (Rattus norvegicus, H4IIE, serum-free, 24 hr, read-out: IC50 (inhibition of glucose production)) was 3.56. For the same molecule, the “effect on glucose production in H4IIE cells” value with H4IIE cells [6] (serum-free, 24 hr (FIG. 2)) is listed as “dose-dependent decrease in glucose production”. Further, the cell toxicity result in the data set with HepG2 cells [7] was “showed cell toxicity”. The “toxic effect on cell viability” value with H4IIE cells [8] is “No toxic effect”.
